Data taken from publication PMC5661649, “G-protein-coupled receptors mediate 14-3-3 signal transduction” (Signal Transduction and Targeted Therapy, 2016).
Where two headings read alike, the source gives them in different places. One block for each compound: values may come before it.

Assays:
Raf-1/14-3-3 interaction = assay: Kinase inhibition of FBS-stimulated Raf-1/14-3-3 interaction in U2OS cells; assay type: cell-based; conditions: 7.5% FBS stimulation, Figure 4d
Experimental: (§1) Cells were cultured overnight.
The LinkLight cells were cultured in a white 384-well plate overnight. The culture medium was then replaced with serum-free DMEM.

[1] = biological target: T1, muscarinic cholinergic receptor 5 (CHRM5) (Homo sapiens, UniProt P08912); assay: CHRM5/14-3-3ε LinkLight assay, antagonist mode; assay type: cell-based; conditions: preincubation with antagonist, then 3 μM carbachol; Figure 2f
T1 construct: Full-length complementary DNAs of human GPCRs without stop codons were subcloned in frame with the tobacco etch virus (TEV) protease vector; expressed in transfected cells
T1 sequence (P08912 1-532): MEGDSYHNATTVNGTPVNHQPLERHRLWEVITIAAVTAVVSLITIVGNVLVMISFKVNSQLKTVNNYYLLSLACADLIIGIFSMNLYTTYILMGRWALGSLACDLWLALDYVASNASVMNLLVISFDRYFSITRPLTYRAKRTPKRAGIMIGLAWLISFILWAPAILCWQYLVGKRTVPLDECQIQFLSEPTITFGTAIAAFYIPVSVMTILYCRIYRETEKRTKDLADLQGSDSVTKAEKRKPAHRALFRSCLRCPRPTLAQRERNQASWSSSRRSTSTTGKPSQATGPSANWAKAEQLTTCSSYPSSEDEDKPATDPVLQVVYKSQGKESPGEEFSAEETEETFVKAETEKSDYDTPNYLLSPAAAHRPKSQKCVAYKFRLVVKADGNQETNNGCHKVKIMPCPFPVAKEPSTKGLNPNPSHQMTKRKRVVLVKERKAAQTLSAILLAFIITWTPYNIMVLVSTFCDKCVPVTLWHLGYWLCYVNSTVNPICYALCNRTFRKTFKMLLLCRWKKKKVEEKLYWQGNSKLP
From the text: (§2) Full-length complementary DNAs of human GPCRs without stop codons were subcloned in frame with the tobacco etch virus (TEV) protease vector as previously described.[20],[21] The β-arrestin-2-permuted luciferase (β-arr-2-pLuc) expression plasmid was also previously described.[20],[21] 14-3-3ɛ and 14-3-3ζ full-length complementary DNAs without stop codons were used to replace β-arrestin-2 in the β-arr-2-pLuc for construction of the 14-3-3ɛ-pLuc and 14-3-3ζ-pLuc expression plasmids. […] Multiple stable clones were selected for evaluation.
(§3) The LinkLight cells stably expressing both GPCR-TEV and 14-3-3ε-pLuc were seeded into a 384-well white plate (Becton Dickinson, Franklin Lakes, NJ, USA) at 20 000 cells per well with 30 μl of regular medium. Cells were cultured overnight. The following day, the culture medium was replaced with 15 μl of serum-free DMEM, followed by the addition of 5 μl of compounds/drugs. Agonists were added as serial dilutions in serum-free DMEM from 10 mM dimethylsulfoxide stocks. For antagonist inhibition assays, the medium was replaced with 10 μl of serum-free DMEM. […] The luminescence signals were determined using a luminescence plate reader (EnSpire or TopCount). Alternatively, after compound incubation, the culture medium was replaced with 10 μl of luciferase detection reagent, and luminescence signals were recorded. […]

[2] = biological target: T1, muscarinic cholinergic receptor 5 (CHRM5); assay: CHRM5/14-3-3ε LinkLight assay, agonist mode; assay type: cell-based; conditions: stable CHRM5/14-3-3 LinkLight cells; Figure 2e
From the text: as §2, §3

α1AR/14-3-3 interaction = assay: Kinase inhibitor response in α1AR/14-3-3ε LinkLight cells; assay type: cell-based, human; conditions: preincubation of α1AR/14-3-3 cells; Figure 3c
[3] = biological target: T2, Alpha adrenergic receptor 1A (α1AR) (Homo sapiens, UniProt P35348); assay: α1AR/14-3-3ε LinkLight assay (agonist-induced GPCR-mediated 14-3-3 signaling); assay type: cell-based
T2 construct: Full-length complementary DNAs of human GPCRs without stop codons were subcloned in frame with the tobacco etch virus (TEV) protease vector; expressed in transfected cells
T2 sequence (P35348 1-466): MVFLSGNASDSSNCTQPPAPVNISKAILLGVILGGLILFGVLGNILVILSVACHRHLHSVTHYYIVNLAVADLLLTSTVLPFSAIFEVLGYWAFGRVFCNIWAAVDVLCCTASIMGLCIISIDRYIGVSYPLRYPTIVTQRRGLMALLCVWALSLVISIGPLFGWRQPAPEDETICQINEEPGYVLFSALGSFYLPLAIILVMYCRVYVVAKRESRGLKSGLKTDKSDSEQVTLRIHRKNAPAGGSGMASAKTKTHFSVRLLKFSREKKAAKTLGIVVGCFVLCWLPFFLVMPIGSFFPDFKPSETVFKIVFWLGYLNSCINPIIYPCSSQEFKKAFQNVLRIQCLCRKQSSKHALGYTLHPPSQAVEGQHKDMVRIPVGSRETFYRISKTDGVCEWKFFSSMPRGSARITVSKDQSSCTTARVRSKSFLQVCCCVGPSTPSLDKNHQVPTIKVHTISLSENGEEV
Experimental: (§4) Multiple stable clones were selected for evaluation.
as §1

[4] = biological target: T3, α1AR (β-arrestin signaling) (Homo sapiens, UniProt P35348); assay: α1AR/β-arrestin-2 LinkLight assay; assay type: cell-based; conditions: α1A-TEV/β-arrestin-pLuc cells, Figure 3f; for EC50: adrenergic agonist panel, read-out: potency (rank order) in β-arrestin signaling
T3 construct: Full-length complementary DNAs of human GPCRs without stop codons were subcloned in frame with the tobacco etch virus (TEV) protease vector; expressed in transfected cells
T3 sequence (P35348 1-466): T2 sequence (P35348 1-466)
Experimental: as §4, §1
The GPCR/β-arrestin-2 LinkLight cells were seeded in white 384-well plates.

[5] = biological target: T4, β3 adrenergic receptor (ADRB3) (Homo sapiens, UniProt P13945); assay: ADRB3/14-3-3 LinkLight assay; assay type: cell-based; conditions: HEK293 stably expressing ADRB3-TEV and 14-3-3-pLuc; Figure 3d
T4 construct: Full-length complementary DNAs of human GPCRs without stop codons were subcloned in frame with the tobacco etch virus (TEV) protease vector; expressed in transfected cells
Experimental: as §4, §1

[6] = system: Raf-1/14-3-3ε interaction; assay: GPCR agonist-induced Raf-1/14-3-3ε interaction LinkLight assay in U2OS cells; assay type: cell-based; conditions: U2OS stably co-expressing Raf-1-TEV and 14-3-3ε-pLuc, endogenous GPCRs; Figure 4a
From the text: as §2
The LinkLight cells stably expressing both GPCR-TEV and 14-3-3ε-pLuc were seeded into a 384-well white plate (Becton Dickinson, Franklin Lakes, NJ, USA) at 20 000 cells per well with 30 μl of regular medium. Cells were cultured overnight. The following day, the culture medium was replaced with 15 μl of serum-free DMEM, followed by the addition of 5 μl of compounds/drugs. Agonists were added as serial dilutions in serum-free DMEM from 10 mM dimethylsulfoxide stocks. For antagonist inhibition assays, the medium was replaced with 10 μl of serum-free DMEM. […] An equal volume of Bright-Glo (Promega, Madison, WI, USA), One-Glo (Promega), BriteLite (PerkinElmer, Billerica, MA, USA) or NeoLite (PerkinElmer) luciferase detection reagent was added for a 5-min incubation. The luminescence signals were determined using a luminescence plate reader (EnSpire or TopCount). Alternatively, after compound incubation, the culture medium was replaced with 10 μl of luciferase detection reagent, and luminescence signals were recorded.
The Raf-1/14-3-3ε LinkLight cells were seeded in white 384-well plates.

[7] = α1A-TEV/14-3-3ε-pLuc cells, adrenergic agonist panel, Figure 3e, read-out: potency (rank order) in the 14-3-3 signaling assay

T4 sequence (P13945 whole entry): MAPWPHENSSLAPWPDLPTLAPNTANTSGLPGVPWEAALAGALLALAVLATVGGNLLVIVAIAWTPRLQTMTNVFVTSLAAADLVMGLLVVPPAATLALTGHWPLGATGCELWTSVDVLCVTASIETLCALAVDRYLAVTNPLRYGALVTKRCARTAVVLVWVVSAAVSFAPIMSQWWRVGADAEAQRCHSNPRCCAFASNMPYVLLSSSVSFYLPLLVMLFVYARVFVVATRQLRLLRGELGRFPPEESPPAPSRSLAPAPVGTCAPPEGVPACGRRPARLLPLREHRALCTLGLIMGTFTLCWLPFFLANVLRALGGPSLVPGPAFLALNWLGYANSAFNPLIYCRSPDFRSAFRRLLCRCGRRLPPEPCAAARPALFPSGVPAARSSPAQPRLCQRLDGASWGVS

Compound: CCCS(=O)(=O)Nc1ccc(F)c(C(=O)c2c[nH]c3ncc(-c4ccc(Cl)cc4)cc23)c1F [vemurafenib]
- inhibition of FBS-stimulated Raf-1/14-3-3 interaction signals (Raf-1/14-3-3 interaction): partial inhibition

Compound: CN1[C@@H]2CC[C@H]1C[C@@H](OC(=O)C(CO)c1ccccc1)C2 (stereo partly shown) [atropine]
- inhibition of agonist-induced CHRM5-mediated 14-3-3 signals [1]: antagonist concentration-dependent inhibition signals

Compound: O=C1CCCN1CC#CCN1CCCC1 [Oxotremorine, oxotremorine]
- agonist behaviour for 14-3-3 signaling (full/partial) [2]: full agonists

Compound: Cn1c(CNc2cccc(C(=O)NCc3ccccc3C(F)(F)F)c2)nnc1-c1ccncc1 [CMPD101]
- inhibition of cirazoline-stimulated α1AR/14-3-3 signals (α1AR/14-3-3 interaction): did not inhibit

- agonist behaviour for 14-3-3 signaling (full/partial) [2]: full agonists
Compound: C[N+](C)(C)CCOC(N)=O [carbachol]

- EC50 [3, 7]: 11.1 nM
- EC50 [4]: 318 nM
Compound: COc1ccc(OC)c(C(O)C(C)N)c1 (stereo not shown) [methoxamine]

Compound: CC(C)NCC(O)c1ccc(O)c(O)c1 (stereo not shown) [isoproterenol]
- agonist behaviour in β-arrestin signaling versus 14-3-3 signaling [4]: much weaker agonists of β-arrestin signaling than of 14-3-3 signaling
- ADRB3/14-3-3 interaction signals [5]: promoted ADRB3/14-3-3 interaction signals in a concentration-dependent manner

- EC50 [3, 7]: 12.4 nM
- EC50 [4]: 1610 nM
- ADRB3/14-3-3 interaction signals [5]: very weak signals even at 10 μM
Compound: N=C(N)NC(=O)Cc1c(Cl)cccc1Cl [guanfacine]

- EC50 [3, 7]: 55.2 nM
- EC50 [4]: 780 nM
Compound: Brc1c(NC2=NCCN2)ccc2nccnc12 [UK14304]

Compound: C[C@H](Cc1ccc(OCC(=O)O)cc1)NC[C@H](O)c1cccc(Cl)c1 [BRL37344]
- agonist behaviour in β-arrestin signaling versus 14-3-3 signaling [4]: much weaker agonists of β-arrestin signaling than of 14-3-3 signaling

Compound: O=C1Nc2ccc(I)cc2/C1=C/c1cc(Br)c(O)c(Br)c1 [GW5074]
- inhibition of FBS-stimulated Raf-1/14-3-3 interaction signals (Raf-1/14-3-3 interaction): very weak inhibition activity

Compound: CNC[C@H](O)c1ccc(O)c(O)c1 [adrenaline]
- Raf-1/14-3-3 interaction signals on stimulation with GPCR agonist [6]: concentration-dependent Raf-1/14-3-3 interaction signals

Compound: O=S(=O)(NCCNC/C=C/c1ccc(Br)cc1)c1cccc2cnccc12 [H-89]
- inhibition of cirazoline-stimulated α1AR/14-3-3 signals (α1AR/14-3-3 interaction): did not inhibit

- EC50 ([3]; HEK293 stably co-expressing α1A-TEV/14-3-3ε-pLuc, Figure 2a, read-out: EC50, α1AR-mediated 14-3-3 signaling): 9.5 nM
- EC50 [3, 7]: 1.72 nM
- EC50 [4]: 18.4 nM
- ADRB3/14-3-3 interaction signals [5]: very weak signals even at 10 μM
Compound: c1ccc(C2CC2)c(OCC2=NCCN2)c1 [cirazoline]

Compound: CN1[C@@H]2C[C@@H](OC(=O)[C@H](CO)c3ccccc3)C[C@H]1[C@@H]1O[C@@H]12 [scopolamine]
- inhibition of agonist-induced CHRM5-mediated 14-3-3 signals [1]: antagonist concentration-dependent inhibition signals

Compound: CCNC(=O)[C@H]1O[C@@H](n2cnc3c(N)ncnc32)[C@H](O)[C@@H]1O [NECA, 5'-N-ethylcarboxamidoadenosine]
- Raf-1/14-3-3 interaction signals on stimulation with GPCR agonist [6]: concentration-dependent Raf-1/14-3-3 interaction signals

Compound: NCCc1ccc(O)c(O)c1 [dopamine]
- Raf-1/14-3-3 interaction signals on stimulation with GPCR agonist [6]: concentration-dependent Raf-1/14-3-3 interaction signals
